Results: the Biogen ADME set (Fang et al. 2023)
≈ marks a conversion by molar mass, not a printed value.

Conditions: for aqueous solubility: pH 6.8

Row | SMILES | MDR1-MDCK efflux ratio | intrinsic clearance, human liver microsomes [mL/min/kg] | intrinsic clearance, rat liver microsomes [mL/min/kg] | fraction unbound, human plasma | aqueous solubility [µg/mL] | fraction unbound, rat plasma
1 | NCC1CCCC1NC(=O)c1cc(N2CCNC2=O)ccc1F (centres undefined) | 1.92 | ≤ 4.74 |  | 0.75 |  | 
2 | COc1cc(F)ccc1-c1ncnc(Nc2cccc(C[S@@](C)(=N)=O)c2)n1 | 150 | ≤ 4.74 | ≤ 10.7 | 0.393 | 53.7 (≈ 139 µM) | 0.375
3 | Cn1ccc(CSc2n[nH]c(-c3cc(F)cc(F)c3)n2)n1 | 0.58 | 12.9 | 131 |  |  | 
4 | COc1ccc(-c2cccc(C3CCCN(CC(=O)Nc4ccccn4)C3)n2)cc1 (centres undefined) | 0.833 | 131 | 2220 |  | 8.1 (≈ 20.1 µM) | 
5 | CN(C)c1cccc(Cn2ccnc2-c2ccc(O)cc2)c1 | 3.77 | 77.7 | 1040 |  | 27.1 (≈ 92.5 µM) | 
6 | Cc1cccc(Oc2ncccc2N)c1C | 0.588 | 11.7 | 308 |  | 45.3 (≈ 212 µM) | 
7 | Cc1ccc(C(=O)C(=O)Nc2c(C)nn(C)c2C)cc1 | 0.615 | 20 | 115 |  | 32.6 (≈ 120 µM) | 
8 | CSCc1noc(COc2ccc(F)cc2F)n1 |  |  |  |  | 17.3 (≈ 63.5 µM) | 
9 | CCc1nc(N2CC(CO)C2)c2ccsc2n1 | 1.33 | 10.7 | 50 |  |  | 
10 | C1CCC(OCc2noc(C3CC3)n2)CC1 | 0.884 | 34 | 372 |  | 16.2 (≈ 72.9 µM) | 
11 | COc1ccnc(N2CC(n3nc(C)cc3C)C2)n1 | 0.655 | ≤ 4.74 | 44.2 |  | 38 (≈ 146 µM) | 
12 | CCOc1ccnc(NCCCc2nc3cc(F)ccc3[nH]2)n1 | 3.15 | 237 | 3280 |  |  | 
13 | CCN(c1cc(-c2ccc(CN3CCOCC3)cc2)cc(C(=O)NCc2c(C)cc(C)nc2O)c1C)C1CCOCC1 | 60.3 | 131 | 525 |  | 49.2 (≈ 85.9 µM) | 
14 | O=C(c1ccc2c(c1)OCO2)N1CCC(c2n[nH]c(C3CC3)n2)CC1 | 62.7 | ≤ 4.74 | 44.6 |  | 27 (≈ 79.4 µM) | 
15 | Clc1cccc(Cl)c1Cc1n[nH]c(CCCn2cccn2)n1 | 13.3 | 99.9 | 581 |  |  | 
16 | CCC1(CC)NC(=O)N(CC(=O)N2CCOCC3(CCCC3)C2)C1=O | 81.5 | 30.6 | 217 |  | 63.4 (≈ 180 µM) | 
17 | COc1ccc(C(=O)Nc2cc(-c3ccc(F)c(F)c3)no2)cc1 | 0.43 |  |  |  | 0.35 (≈ 1.06 µM) | 
18 | N#Cc1ccccc1-c1ccc(-c2nccn2-c2cccnc2)o1 | 1.48 | 87.9 | 719 |  | 29.7 (≈ 95.2 µM) | 
19 | N#CC1(NC(=O)C2CCCCCC2)CC1 |  | ≤ 4.74 | ≤ 10.7 |  | 33.4 (≈ 162 µM) | 
20 | COc1ccc([C@H]2c3[nH]c4ccc(Cl)cc4c3CCN2C(=O)Oc2ccc(Cl)cc2)cc1 | 0.432 |  |  | 0.326 | 0.1 (≈ 0.214 µM) | 0.568
21 | CCSCCC(=O)NCCn1nc(C)c(CC)c1C | 2.49 | 146 | 1540 |  |  | 
22 | Cc1cc2nc(CCC(=O)N3CCc4n[nH]cc4C3)[nH]c2cc1C | 24 | 17.4 | 190 |  |  | 
23 | Nc1ccc(Nc2ncc3cnn(C4CCCCCC4)c3n2)cn1 |  | 82.2 | 216 |  |  | 

Other lines, results leading:

Row | MDR1-MDCK efflux ratio | intrinsic clearance, human liver microsomes [mL/min/kg] | intrinsic clearance, rat liver microsomes [mL/min/kg] | fraction unbound, human plasma | aqueous solubility [µg/mL] | fraction unbound, rat plasma | SMILES
24 | 0.373 | 95.8 | 665 |  |  |  | CC(=O)Nc1ccccc1OCCOc1ccc(Cl)cc1
25 | 15.9 |  |  |  | 0.41 (≈ 1.06 µM) |  | Cc1cccc(OCC(=O)Nc2ccc3c(c2)C(=O)N(c2ccccc2)C3=O)c1
26 | 0.62 | 230 | 5760 |  |  |  | CN(Cc1cnc2ccccc2n1)S(=O)(=O)N1CCCCCC1
27 |  |  |  |  | 41.5 (≈ 207 µM) |  | N#CCn1c(C(=O)O)cc2ccccc21
28 | 2.23 | 84.3 | 1300 |  | 2.59 (≈ 6.75 µM) |  | CC(C)(C)OC(=O)NCc1ccc(C(=N)NC(=O)OCc2ccccc2)cc1
29 | 0.516 | 166 | 622 |  |  |  | Cc1cc(NC(=O)CN(C)CCOc2ccccc2)on1
30 | 0.871 | 2130 | 4230 |  | 25.6 (≈ 64.9 µM) |  | CC(C(=O)N1CCc2sccc2C1)N1CCCN(c2ccccc2C#N)CC1 (centres undefined)
31 | 1.21 | 13.7 | 139 |  |  |  | CCc1nnc(Sc2nc3cc(C)nn3c3ccccc23)[nH]1
32 | 0.584 | ≤ 4.74 | 31 |  | 15.3 (≈ 71.7 µM) |  | c1ccc(CN2CCn3nccc3C2)cc1
33 |  | 37.1 | 87.6 |  |  |  | Nc1nc2ccccc2n1C1CCCC1
34 | 60.4 | 7.53 | 103 | 0.004 | 5.95 (≈ 15.8 µM) | 0.00181 | COc1ccccc1-c1cc(NC(=O)c2cccc(N3CCNC3=O)c2)[nH]n1
35 | 0.704 | ≤ 4.74 | 31.1 |  |  |  | O=C(Cc1cccnc1)Nc1ncccc1Cl
36 |  | 19.2 | 169 |  | 49.4 (≈ 172 µM) |  | CCCN1CCCN(C(=O)c2nc3ccccc3[nH]2)CC1
37 |  | 42.1 | 5410 |  |  |  | O=C(c1nccc2ccccc12)N1CCC(COc2ccccn2)CC1
38 | 0.472 |  |  |  | 0.28 (≈ 1.08 µM) |  | CN(C(=O)OC(C)(C)C)c1ccc2ccccc2n1
39 | 0.966 | ≤ 4.74 | 18.9 |  | 11.7 (≈ 55.7 µM) |  | Cc1ccc(-c2ccnc(O)c2C#N)cc1
40 | 1.18 | 45 | 845 |  | 58.4 (≈ 163 µM) |  | O=C(c1sc(N2CCOCC2)nc1-c1ccccc1)N1CCCCC1
41 | 0.708 | 1150 | 2000 |  |  |  | COC(=O)c1cccc2c1CCCN2C(=O)c1ccc(F)cc1F
42 | 7.15 | 15.3 | 376 |  | 45.2 (≈ 129 µM) |  | Cc1ccccc1COC1CN(C(=O)Cn2c(=O)[nH]c3ccccc32)C1
